Columns and labels:
[1] = Example 1: blood concentrations of P88 and P95 after iloperidone by CYP2D6 genotype, with and without inhibitor; format: in vivo, human; set-up: unit not given here; conditions: at Tmax of P88, without inhibitor
From the text: The research leading to the present invention was designed to examine the effect of different doses of iloperidone relative to the effect of ziprasidone and quetiapine on QTc duration under carefully controlled conditions. To further evaluate the possible relationship between exposure to iloperidone and the comparators to QTc duration, reassessment after pharmacological inhibition of the principle metabolic pathways for each drug, under steady-state conditions, was also planned.
Blood samples for pharmacogenetic analysis were collected at screening. Two polymorphisms previously associated with poor metabolizing status were genotyped in the CYP2D6 locus, and 251 genotypes were collected. The individual genotypes were studied for detection of association between genotype class and concentrations of iloperidone and its metabolites P88 and P95. The functional effect of the polymorphisms was also evaluated by analyzing the effect of the addition of the CYP2D6 inhibitor paroxetine on the concentrations of the parent drug and its metabolites.
The addition of metabolic inhibitors in this study therefore allowed for an evaluation of the effect of increasing blood-concentration of iloperidone and/or its metabolites on QT duration. More specifically, this study allowed for an evaluation of the effect of iloperidone on QTc before and after the addition of the CYP2D6 inhibitor, paroxetine, as well as before and after the addition of the CYP3A4 inhibitor, ketoconazole.
128 individuals consented to the pharmacogenetic study. Blood samples were collected according to the pharmacogenetics protocol and after the consent of patients. The DNA was extracted from whole blood by Covance using the PUREGENE DNA isolation kit (D-50K).
The 128 individuals that participated were a good representation of the total sample of 165 individuals that participated in the trial. 22 of 29 total were from the iloperidone 8 mg bid group, 30 of 34 were from the iloperidone 12 mg bid group, 22 of 31 from the 24 mg qd group, 3 of 5 of the risperidone group, 28 of 33 of the ziprazidone group, and 23 of 33 of the quetiapine group.
The genotype effect of the two CYP2D6 polymorphisms on period 1 concentrations was evaluated using the following ANOVA model. Concentrations of iloperidone, P88, and P95 at Period 1, without inhibitor, at the time at which maximum blood concentration of the parent compound or metabolite was reached (Tmax) were used as the dependent variable, the genotypes of each polymorphism as classes and the treatment as a covariate. In order to adjust for treatment effects after the single dose of iloperidone, the 8 mg bid was coded as 8, the 12 mg bid as 12 and the 24 mg qd as 24.
The function of these polymorphisms on the degree of inhibition of the CYP2D6 enzyme was calculated from the ratio of concentrations of P88 and P95 in period 2, after the addition of the inhibitor of CYP2D6. The concentrations of iloperidone and/or its metabolites (e.g., P88 and P95) may be determined in period 1 and/or period 2 by any known or later-developed method or device, including titration.
In order to understand the functional significance of the two CYP2D6 polymorphisms on the activity of the enzyme, the association of the various genotypes with the relative concentrations of the metabolites P88 and P95 were examined. It is known that P88 is degraded by CYP2D6 and that CYP2D6 is involved in the synthesis of P95. The relative amounts of P88 and P95 would therefore be controlled by the activity of the CYP2D6 enzyme. The ratio of P88/P95 was calculated before inhibition in Period 1 and at the Tmax of the two metabolites, as well as the ratio of P88/P95 in Period 2 after the addition of the CYP2D6 inhibitor paroxetine. In individuals with the wild type enzyme the concentration of P88 is expected to increase in Period 2, while in the same period the concentration of P95 is expected to decline.

[2] = interaction study: addition of CYP2D6 inhibitor fluoxetine, AUC; conditions: addition of CYP2D6 inhibitor fluoxetine along with iloperidone
[3] = biological target: HERG channel (Homo sapiens, UniProt Q12809); assay: affinity for the HERG channel; format: binding
[4] = lipophilicity; format: physicochemical; conditions: compared to iloperidone

Sequence of HERG channel (Q12809 whole entry): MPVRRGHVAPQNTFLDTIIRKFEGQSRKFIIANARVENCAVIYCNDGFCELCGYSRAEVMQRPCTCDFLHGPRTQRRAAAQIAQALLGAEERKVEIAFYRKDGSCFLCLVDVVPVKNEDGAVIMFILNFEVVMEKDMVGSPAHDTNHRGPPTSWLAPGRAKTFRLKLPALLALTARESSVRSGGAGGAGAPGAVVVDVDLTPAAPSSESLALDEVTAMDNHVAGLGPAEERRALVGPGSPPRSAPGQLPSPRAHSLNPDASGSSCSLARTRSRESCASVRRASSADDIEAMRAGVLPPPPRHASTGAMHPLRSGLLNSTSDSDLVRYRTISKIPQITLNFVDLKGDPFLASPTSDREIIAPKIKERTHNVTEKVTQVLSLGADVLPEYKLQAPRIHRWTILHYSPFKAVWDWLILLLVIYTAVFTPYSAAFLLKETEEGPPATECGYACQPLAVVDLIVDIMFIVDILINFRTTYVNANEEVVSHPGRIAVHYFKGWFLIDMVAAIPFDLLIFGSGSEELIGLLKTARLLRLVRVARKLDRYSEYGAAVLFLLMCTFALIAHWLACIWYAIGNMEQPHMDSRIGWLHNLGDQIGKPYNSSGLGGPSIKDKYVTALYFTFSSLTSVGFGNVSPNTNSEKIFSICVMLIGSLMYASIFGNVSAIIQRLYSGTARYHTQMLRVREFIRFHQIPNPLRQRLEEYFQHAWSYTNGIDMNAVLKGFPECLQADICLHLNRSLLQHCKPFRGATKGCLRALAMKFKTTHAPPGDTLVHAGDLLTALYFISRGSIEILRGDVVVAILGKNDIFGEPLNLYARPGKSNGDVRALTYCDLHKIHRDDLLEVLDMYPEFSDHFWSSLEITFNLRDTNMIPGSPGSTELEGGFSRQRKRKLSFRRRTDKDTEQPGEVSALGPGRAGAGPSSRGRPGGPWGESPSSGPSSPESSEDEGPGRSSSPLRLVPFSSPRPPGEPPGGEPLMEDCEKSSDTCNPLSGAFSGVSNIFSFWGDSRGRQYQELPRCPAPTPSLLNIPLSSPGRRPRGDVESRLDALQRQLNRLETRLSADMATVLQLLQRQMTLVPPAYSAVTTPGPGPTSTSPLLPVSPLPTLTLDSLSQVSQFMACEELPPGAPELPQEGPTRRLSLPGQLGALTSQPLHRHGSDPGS

Compound	P88 concentrations in Period 1, LSMeans ([1]; CYP2D6C100T CC)	P88 concentrations in Period 1, LSMeans ([1]; CYP2D6C100T CT)	P88 concentrations in Period 1, LSMeans ([1]; CYP2D6C100T TT)	P88 concentrations in Period 1, LSMeans ([1]; CYP2D6G1846A AA)	P88 concentrations in Period 1, LSMeans ([1]; CYP2D6G1846A AG)	P88 concentrations in Period 1, LSMeans ([1]; CYP2D6G1846A GG)	increase of the area under the curve (AUC) [2] [%]	affinity for the HERG channel [3]	lipophilicity [4]
COc1cc(C(C)O)ccc1OCCCN1CCC(c2noc3cc(F)ccc23)CC1 (stereo not drawn) [P88]	21.03	33.16	51.00	62.70	31.40	21.03	119	–	–
COc1cc(C(=O)O)ccc1OCCCN1CCC(c2noc3cc(F)ccc23)CC1 [P95]	–	–	–	–	–	–	–	very low affinity	less lipophilic
